Square brackets hold non-standard residues; d marks the D form. Ends that are not written are not given here. Peptide text beside a SMILES is read from it.

One data set can be described thus: in vitro. The note with it: male, human, plasma, Mean residual amount.
Data set [1] can be described thus: In vitro proteolysis assay in rat serum. It is filed as in vitro ADME. The conditions noted are these: mean±SEM; for Residual concentration: incubation 0 min; for remaining at 8 min, 15 µM / remaining at 0.25 h, 15 µM / remaining at 0.5 h, 15 µM / remaining at 1 h, 15 µM: male, Sprague Dawley, read-out: Residual concentration; for remaining at 8 min, 15 µM: diluted 1/100, incubation 8 min; for remaining at 0.25 h, 15 µM: diluted 1/100, incubation 15 min; for remaining at 0.5 h, 15 µM: diluted 1/100, incubation 30 min; for remaining at 1 h, 15 µM: diluted 1/100, incubation 60 min.
Description: Proteolysis was stopped by adding 800 μl of ice-cold stop buffer (potassium-phosphate buffer, acidified to pH 0.8 with trifluoroacetic acid (TFA) and boiling 5 min (rat serum only). After centrifugation (12000 g, 5 min, 4° C.) (rat serum only), serum-peptide mixtures were passed through a conditioned Sep-Pak C-18 cartridge to extract native GHRH or a GHRH analogue residual concentrations from serum proteins. The native GHRH or the analogue was eluted in 2 ml of 50% acetonitrile-0.01% TFA/50% 0.01% aqueous TFA. Two hundred μl of extracted peptide, representing 1 μg of GHRH or analogue at time 0, was quantified by analytical HPLC, using one μ-Bondapak C18 column (10 μm particle size, 0.39×15 cm) (rat serum) or two C18 column in series (human serum and plasma) and a binary solvent system composed of NaClO4 0.01 M, pH 2.5 and acetonitrile. A linear gradient from 30 to 60% acetonitrile over 45 min (rat serum) or 30 to 50% (human serum and plasma) was used.

In a further data set the target is T1, human GHRH receptor (Homo sapiens, UniProt Q02643).
T1 construct: expressed in transfected cells; host or cells: BHK (baby hamster kidney) 570 cells
T1 sequence (Q02643 23-423): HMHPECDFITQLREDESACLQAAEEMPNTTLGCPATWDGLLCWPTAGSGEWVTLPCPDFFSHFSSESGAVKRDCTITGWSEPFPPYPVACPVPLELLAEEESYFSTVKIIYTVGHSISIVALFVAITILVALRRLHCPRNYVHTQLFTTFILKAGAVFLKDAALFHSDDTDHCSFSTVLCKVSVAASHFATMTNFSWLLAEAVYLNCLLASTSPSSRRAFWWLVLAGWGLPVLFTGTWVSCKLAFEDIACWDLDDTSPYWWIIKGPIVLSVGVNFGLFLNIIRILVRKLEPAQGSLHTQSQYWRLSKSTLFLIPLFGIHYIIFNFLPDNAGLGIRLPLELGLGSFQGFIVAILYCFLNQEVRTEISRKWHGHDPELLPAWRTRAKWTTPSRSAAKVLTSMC
Put plainly: Competitive 125I-GHRH binding assay in BHK cell membrane preparations expressing the human GHRH receptor. The note with it: ratio IC50 of hGHRH(1-29)-NH2/IC50 analogue, mean±SEM. The method, then: Non specific binding was determined in presence of 1 μM hGHRH(1-29)NH2. Incubation was carried out at equilibrium (23° C., 60 min) and stopped by centrifugation (12,000 g, 5 min, at 4° C.). The radioactivity content in pellets was determined by gamma counting. The affinity of hGHRH(1-29) NH2 was tested in each experiment to assess the validity of the assay and determine the relative affinity of the analogues.
Values represent the mean±SEM of 3 experiments performed in triplicate for the analogues and the mean±SEM of 2 experiments performed in triplicate for hGHRH(1-44) NH2.
For the binding assay results presented in Tables 8 to 11, values represent the mean±SEM of 8 independent experiments performed in triplicate for the analogues and the mean±SEM of 4 experiments performed in triplicate for hGHRH(1-29)NH2. […] The relative affinity was obtained by taking the ratio IC50 of hGHRH (1-29)-NH2/IC50 analogue.

A short description of data set [2]: In vitro proteolysis assay in human serum. The conditions noted are these: human serum. It is filed as in vitro ADME.
Description: Ten μl of a 300 M solution of hGHRH (1-29)NH2 or of a GHRH analogue was solubilized in dimethylsulfoxide (DMSO) and incubated in one of the following conditions: a—190 μl serum (1/100 dilution in picopure water) from 2-month-old male Sprague Dawley rats, at 37° C. for 0, 8, 15, 30 or 60 min, in polypropylene tubes; b—190 μl of human healthy volunteer plasma (from Human Whole Blood Na EDTA, males, drug free (Algorithme Pharma Inc.); project: MTL-P2-155; Lot: MTLP2155-01, supplied by LAB Dev Int); and c—190 μl of human healthy volunteer pooled serum, Lot: X409 (supplied by LAB Dev Int), at 37° C. for 0, 60, 120, 180 or 420 min, in polypropylene tubes. Proteolysis was stopped by adding 800 μl of ice-cold stop buffer (potassium-phosphate buffer, acidified to pH 0.8 with trifluoroacetic acid (TFA) and boiling 5 min (rat serum only). After centrifugation (12000 g, 5 min, 4° C.) (rat serum only), serum-peptide mixtures were passed through a conditioned Sep-Pak C-18 cartridge to extract native GHRH or a GHRH analogue residual concentrations from serum proteins. The native GHRH or the analogue was eluted in 2 ml of 50% acetonitrile-0.01% TFA/50% 0.01% aqueous TFA. Two hundred μl of extracted peptide, representing 1 μg of GHRH or analogue at time 0, was quantified by analytical HPLC, using one μ-Bondapak C18 column (10 μm particle size, 0.39×15 cm) (rat serum) or two C18 column in series (human serum and plasma) and a binary solvent system composed of NaClO4 0.01 M, pH 2.5 and acetonitrile. A linear gradient from 30 to 60% acetonitrile over 45 min (rat serum) or 30 to 50% (human serum and plasma) was used.
More specifically, the values represent the mean, standard deviation and standard error from the mean of 3 to 7 experiments.

In “in vitro”, `CC[C@H](C)[C@H](NC(=O)[C@H](C)NC(=O)[C@H](CC(=O)O)NC(=O)[C@@H](C)NC(=O)[C@@H](N)Cc1ccc(O)cc1)C(=O)N[C@@H](Cc1ccccc1)C(=O)N[C@H](C(=O)N[C@@H](C)C(=O)N[C@@H](CO)C(=O)N[C@@H](Cc1ccc(O)cc1)C(=O)N[C@@H](CCCNC(=N)N)C(=O)N[C@@H](CCCCN)C(=O)N[C@H](C(=O)N[C@@H](CC(C)C)C(=O)N[C@@H](C)C(=O)N[C@@H](CCC(N)=O)C(=O)N[C@@H](CC(C)C)C(=O)N[C@@H](CO)C(=O)N[C@@H](C)C(=O)N[C@@H](CCCNC(=N)N)C(=O)N[C@@H](CCCCN)C(=O)N[C@@H](CCCCN)C(=O)N[C@@H](CC(C)C)C(=O)N[C@@H](CCC(N)=O)C(=O)N[C@@H](CC(=O)O)C(=O)N[C@H](C(=O)N[C@@H](CCSC)C(=O)N[C@@H](CO)C(=O)N[C@@H](CCCNC(=N)N)C(N)=O)[C@@H](C)CC)C(C)C)[C@@H](C)O` [GHRH analogue #1, [D-Ala^2, Ala^8, Ala^15, Lys^22] hGHRH(1-29)-NH2] (H-Y[dA]DAIFTASYRKVLAQLSARKKLQDIMSR-NH2; N-terminus assumed) came in with a remaining at 1 h, 15 µM of 79%; a remaining at 2 h, 15 µM of 63%; a remaining at 3 h, 15 µM of 68%. In data set [1], the Residual concentration is listed as 100 ± 0 % of initial concentration; the remaining at 8 min, 15 µM was 75 ± 12%; the remaining at 0.25 h, 15 µM came out at 70 ± 15%; the remaining at 0.5 h, 15 µM is 53 ± 8%. In addition, the remaining at 1 h, 15 µM in data set [1] is 30 ± 6%. The “Relative binding affinity (R1) in comparison with hGHRH(1-29)NH2 in BHK cells expressing the hGHRH receptor” value (“Relative binding affinity (R1)” for short) at human GHRH receptor (listed as 1) was 499 ± 234. For the same molecule, the “Relative binding affinity (R1)” value at human GHRH receptor (listed as #1) is given as “significantly higher binding affinity”.
In the data set “in vitro”, `CC[C@H](C)[C@H](NC(=O)[C@H](C)NC(=O)[C@H](CC(=O)O)NC(=O)[C@@H](C)NC(=O)[C@@H](N)Cc1ccc(O)cc1)C(=O)N[C@@H](Cc1ccccc1)C(=O)N[C@H](C(=O)N[C@@H](CC(N)=O)C(=O)N[C@@H](CO)C(=O)N[C@H](Cc1ccc(O)cc1)C(=O)N[C@@H](CCCNC(=N)N)C(=O)N[C@@H](CCCCN)C(=O)N[C@H](C(=O)N[C@@H](CC(C)C)C(=O)NCC(=O)N[C@@H](CCC(N)=O)C(=O)N[C@@H](CC(C)C)C(=O)N[C@@H](CO)C(=O)N[C@@H](C)C(=O)N[C@@H](CCCNC(=N)N)C(=O)N[C@@H](CCCCN)C(=O)N[C@@H](CCCCN)C(=O)N[C@@H](CC(C)C)C(=O)N[C@@H](CCC(N)=O)C(=O)N[C@@H](CC(=O)O)C(=O)N[C@H](C(=O)N[C@@H](CCSC)C(=O)N[C@@H](CO)C(=O)N[C@@H](CCCNC(=N)N)C(N)=O)[C@@H](C)CC)C(C)C)[C@@H](C)O` [GHRH analogue #3, [D-Ala^2, D-Tyr^10, Lys^22] hGHRH(1-29)-NH2] (H-Y[dA]DAIFTNS[dY]RKVLGQLSARKKLQDIMSR-NH2; N-terminus assumed) registered a remaining at 1 h, 15 µM of 87%; a remaining at 2 h, 15 µM of 78%; a remaining at 3 h, 15 µM of 81%. In data set [1], the Residual concentration is on record as 100 ± 0 % of initial concentration; the remaining at 8 min, 15 µM came out at 82 ± 7%; the remaining at 0.25 h, 15 µM worked out at 88 ± 7%; the remaining at 0.5 h, 15 µM turned out to be 70 ± 12%. Further, the remaining at 1 h, 15 µM in data set [1] stood at 36 ± 4%. Besides, the “Relative binding affinity (R1)” value at human GHRH receptor (D-Tyr^10, Lys^22]human GHRH(1-29)NH2) came to 239 ± 55.
As for `CC[C@H](C)[C@H](NC(=O)[C@H](C)NC(=O)[C@H](CC(=O)O)NC(=O)[C@@H](C)NC(=O)[C@@H](N)Cc1ccc(O)cc1)C(=O)N[C@@H](Cc1ccccc1)C(=O)N[C@H](C(=O)N[C@@H](C)C(=O)N[C@@H](CO)C(=O)N[C@H](Cc1ccc(O)cc1)C(=O)N[C@@H](CCCNC(=N)N)C(=O)N[C@@H](CCCCN)C(=O)N[C@H](C(=O)N[C@@H](CC(C)C)C(=O)N[C@@H](C)C(=O)N[C@@H](CCC(N)=O)C(=O)N[C@@H](CC(C)C)C(=O)N[C@@H](CO)C(=O)N[C@@H](C)C(=O)N[C@@H](CCCNC(=N)N)C(=O)N[C@H](CCCCN)C(=O)N[C@@H](CCCCN)C(=O)N[C@@H](CC(C)C)C(=O)N[C@@H](CCC(N)=O)C(=O)N[C@@H](CC(=O)O)C(=O)N[C@H](C(=O)N[C@@H](CCSC)C(=O)N[C@@H](CO)C(=O)N[C@@H](CCCNC(=N)N)C(N)=O)[C@@H](C)CC)C(C)C)[C@@H](C)O` [GHRH analogue #4, [D-Ala^2, Ala^8, D-Tyr^10, Ala^15, D-Lys^21, Lys^22] hGHRH(1-29)-NH2] (H-Y[dA]DAIFTAS[dY]RKVLAQLSAR[dK]KLQDIMSR-NH2; N-terminus assumed), in data set [1], the Residual concentration was 100 ± 0 % of initial concentration; the remaining at 8 min, 15 µM turned out to be 98 ± 2%; the remaining at 0.25 h, 15 µM came out at 100%; the remaining at 0.5 h, 15 µM amounted to 99 ± 1%. In addition, the remaining at 1 h, 15 µM in data set [1] worked out at 97 ± 3%. Further, the “Relative binding affinity (R1)” value at human GHRH receptor was 0.05 ± 0.01.
Take `CC[C@H](C)[C@H](NC(=O)[C@H](C)NC(=O)[C@H](CC(=O)O)NC(=O)[C@H](C)NC(=O)[C@@H](N)Cc1ccc(O)cc1)C(=O)N[C@@H](Cc1ccccc1)C(=O)N[C@H](C(=O)N[C@@H](CC(N)=O)C(=O)N[C@@H](CO)C(=O)N[C@@H](Cc1ccc(O)cc1)C(=O)N[C@@H](CCCNC(=N)N)C(=O)N[C@@H](CCCCN)C(=O)N[C@H](C(=O)N[C@@H](CC(C)C)C(=O)NCC(=O)N[C@@H](CCC(N)=O)C(=O)N[C@@H](CC(C)C)C(=O)N[C@@H](CO)C(=O)N[C@@H](C)C(=O)N[C@@H](CCCNC(=N)N)C(=O)N[C@@H](CCCCN)C(=O)N[C@@H](CC(C)C)C(=O)N[C@@H](CC(C)C)C(=O)N[C@@H](CCC(N)=O)C(=O)N[C@@H](CC(=O)O)C(=O)N[C@H](C(=O)N[C@@H](CCSC)C(=O)N[C@@H](CO)C(=O)N[C@@H](CCCNC(=N)N)C(N)=O)[C@@H](C)CC)C(C)C)[C@@H](C)O` [hGHRH(1-29)NH2, reference compound]: in data set [2] (incubation time 0 min), the Mean residual amount is listed as 100%. Moreover, in data set [2] (incubation time 420 min), the Mean residual amount entry was “disappeared totally”. For the same molecule, in data set [2] (human, pooled human serum, incubation time 60 min, read-out: Mean residual amount), the remaining at 1 h, 15 µM was 57%. In addition, in data set [2] (human, pooled human serum, incubation time 120 min, read-out: Mean residual amount), the remaining at 2 h, 15 µM is 37%. Moreover, the remaining at 3 h, 15 µM in data set [2] (human, pooled human serum, incubation time 180 min, read-out: Mean residual amount) amounted to 16%. Further, the remaining at 7 h, 15 µM in data set [2] (human, pooled human serum, incubation time 420 min, read-out: Mean residual amount) was 0%. In “in vitro”, this molecule came in with a remaining at 1 h, 15 µM of 53%; a remaining at 2 h, 15 µM of 44%; a remaining at 3 h, 15 µM of 23%; a remaining at 7 h, 15 µM of 5%. In data set [1], the Residual concentration is recorded as 100 ± 0 % of initial concentration; the remaining at 8 min, 15 µM is 81 ± 2%; the remaining at 0.25 h, 15 µM is 66 ± 3%; the remaining at 0.5 h, 15 µM turned out to be 43 ± 2%. For the same molecule, the remaining at 1 h, 15 µM in data set [1] stood at 16 ± 1%.
On to “YADAIFTAAYRKVLAQLSARKALQDIMSR-NH2 [GHRH analogue #2, [Ala^8, Ala^9, Ala^15, Ala^22] hGHRH(1-29)-NH2]”, for which, in data set [1], the Residual concentration was 100 ± 0 % of initial concentration; the remaining at 8 min, 15 µM came to 83 ± 3%; the remaining at 0.25 h, 15 µM stood at 73 ± 5%; the remaining at 0.5 h, 15 µM was 53 ± 3%. Moreover, the remaining at 1 h, 15 µM in data set [1] is 29 ± 2%.

The values are drawn from patent US20090023646A1, “GHRH analogues” (Centre Hospitalier de L'Universite de Montreal (CHUM), priority 2002, published 2009).
